# From ChEMBL document CHEMBL5352465, “Small molecules containing chalcogen elements (S, Se, Te) as new warhead to fight neglected tropical diseases” (Eur J Med Chem, 2023)
# How the values were obtained:
# [1] = system: Trypanosoma cruzi; assay: Antitrypanosomal activity against bloodstream Trypanosoma cruzi Y strain trypomastigotes assessed as parasite growth inhibition incubated for 24 hrs by light microscopic analysis; assay type: functional, organism-based
# [2] = system: Leishmania infantum; assay: Antileishmanial activity against Leishmania infantum amastigotes assessed as inhibition of parasite growth; assay type: functional, organism-based
# [3] = system: Leishmania infantum; assay: Antileishmanial activity against Leishmania infantum promastigotes assessed as inhibition of parasite growth; assay type: functional, organism-based
# [4] = Selectivity index, ratio of CC50 for human WI26VA4 cells to ratio of IC50 for antileishmanial activity against Leishmania infantum MHOM/BR/74/PP75 promastigote; assay type: toxicity; conditions: read-out: Ratio CC50/IC50
# [5] = Selectivity index, ratio of CC50 for human WI26VA4 cells to ratio of IC50 for antileishmanial activity against Leishmania braziliensis MHOM/BR/75/M2903 promastigote; assay type: toxicity; conditions: read-out: Ratio CC50/IC50
# [6] = system: Leishmania braziliensis; assay: Antileishmanial activity against Leishmania braziliensis MHOM/BR/75/M2903 strain promastigotes assessed as reduction in cell viability incubated for 48 hrs by MTT assay; assay type: functional, organism-based; conditions: MHOM/BR/75/M2903, 48 h
# [7] = system: Leishmania infantum; assay: Antileishmanial activity against Leishmania infantum MHOM/BR/74/PP75 strain promastigotes assessed as reduction in cell viability incubated for 48 hrs by MTT assay; assay type: functional, organism-based; conditions: MHOM/BR/74/PP75, 48 h
# [8] = system: Leishmania amazonensis; assay: Antileishmanial activity against Leishmania amazonensis promastigotes assessed as inhibition of parasite growth; assay type: functional, organism-based
# [9] = system: Trypanosoma cruzi; assay: Antitrypanosomal activity against Trypanosoma cruzi arequipa strain amastigotes assessed as parasite growth inhibition incubated for 48 hrs by resazurin staining based analysis; assay type: functional, organism-based
# [10] = system: Trypanosoma cruzi; assay: Antitrypanosomal activity against Trypanosoma cruzi arequipa strain epimastigotes assessed as parasite growth inhibition incubated for 48 hrs by resazurin staining based analysis; assay type: functional, organism-based
# [11] = system: Trypanosoma cruzi; assay: Antitrypanosomal activity against Trypanosoma cruzi arequipa strain trypomastigotes assessed as parasite growth inhibition incubated for 48 hrs by resazurin staining based analysis; assay type: functional, organism-based
# [12] = system: Trypanosoma cruzi; assay: Antitrypanosomal activity against Trypanosoma cruzi epimastigote Dm28c strain assessed as parasite growth inhibition incubated for 96 hrs by Neubauer chamber based light microscopic analysis; assay type: functional, organism-based
# [13] = system: Trypanosoma cruzi; assay: Antitrypanosomal activity against Trypanosoma cruzi epimastigote Dm28c strain assessed as parasite growth inhibition; assay type: functional, organism-based
# [14] = system: Trypanosoma cruzi; assay: Antitrypanosomal activity against Trypanosoma cruzi amastigote assessed as parasite growth inhibition; assay type: functional, organism-based
# [15] = Selectivity index, ratio of CC50 for cytotoxicity against mouse RAW264.7 cells to IC50 for antitrypanosomal activity against Trypanosoma cruzi amastigote; assay type: toxicity, cell-based; conditions: read-out: Ratio CC50/IC50
# [16] = Selectivity index, ratio of CC50 for cytotoxicity against mouse RAW264.7 cells to IC50 for antitrypanosomal activity against Trypanosoma cruzi epimastigote; assay type: toxicity, cell-based; conditions: read-out: Ratio CC50/IC50
# [17] = Selectivity index, ratio of CC50 for mouse J774.A1 cells to ratio of IC50 for antitrypanosomal activity against bloodstream Trypanosoma cruzi NINOA strain trypomastigotes; assay type: toxicity; conditions: read-out: Ratio CC50/IC50
# [18] = Selectivity index, ratio of CC50 for mouse J774.A1 cells to ratio of IC50 for antitrypanosomal activity against bloodstream Trypanosoma cruzi INC-5 strain trypomastigotes; assay type: toxicity; conditions: read-out: Ratio CC50/IC50
# [19] = system: Trypanosoma cruzi; assay: Antitrypanosomal activity against bloodstream Trypanosoma cruzi INC-5 strain trypomastigotes assessed as parasite growth inhibition incubated for 24 hrs by microscopic analysis; assay type: functional
# [20] = system: Trypanosoma cruzi; assay: Antitrypanosomal activity against bloodstream Trypanosoma cruzi NINOA strain trypomastigotes assessed as parasite growth inhibition incubated for 24 hrs by microscopic analysis; assay type: functional
# [21] = system: Trypanosoma cruzi; assay: Antitrypanosomal activity against Trypanosoma cruzi epimastigote assessed as parasite growth inhibition; assay type: functional, organism-based
# [22] = system: Leishmania major; assay: Antileishmanial activity against Leishmania major promastigote assessed as inhibition of parasite growth; assay type: functional, organism-based
compound,measurement,setting,value
CC1(C)OC2=C(CC1[Se]c1cccc3ccccc13)C(=O)C(=O)c1ccccc12 (stereo not drawn),IC50,[1],57 µM
CCC(C)Oc1cc(N)nc(Sc2cccc(Cl)c2)n1 (stereo not drawn),IC50,[2],> 0.25 µM
same,IC50,[3],29.4 µM
O=C1NC(=O)/C(=C/c2ccc(Cl)cc2Cl)S1,selectivity ratio,[4],0.82
same,selectivity ratio,[5],0.76
same,IC50,[6],44.2 µM
same,IC50,[7],40.9 µM
CC1=CC[C@@H](C(C)(C)NC(=S)N/N=C/c2ccc([N+](=O)[O-])cc2)CC1,IC50,[8],11200 nM
O=C1NC(=O)/C(=C/c2ccc(Cl)c(Cl)c2)S1,selectivity ratio,[4],1.85
same,selectivity ratio,[5],0.66
same,IC50,[6],65.7 µM
same,IC50,[7],23.4 µM
NC(=S)N/N=C(/C=C/c1ccccc1)c1ccccc1,IC50,[2],6.88 µM
same,IC50,[3],14.7 µM
FC(F)(F)c1ccc(C[Se][Se]Cc2ccc(C(F)(F)F)cc2)cc1,IC50,[9],0.8 µM
same,IC50,[10],1900 nM
same,IC50,[11],1500 nM
c1ccc2c(c1)nnn2C[Se][Se]Cn1nnc2ccccc21,IC50,[2],0.45 µM
CC1=CC[C@@H](C(C)(C)NC(=S)NN)CC1,IC50,[8],3000 nM
C/C(=N\NC(N)=S)c1cc(Cl)ccc1Cl,IC50,[12],6.6 µM
NS(=O)(=O)c1ccc(NC(=O)Cc2ccccc2Br)c(F)c1,IC50,[13],5.66 µM
same,IC50,[14],2.27 µM
same,selectivity ratio,[15],3
same,selectivity ratio,[16],1
CCOP(=O)(Nc1ccc([Se][Se]c2ccc(NP(=O)(OCC)OCC)cc2)cc1)OCC,IC50,[2],0.17 µM
O=C1C(=O)c2ccccc2C2=C1CC(C[Se]c1cccc(C(F)(F)F)c1)O2 (stereo not drawn),IC50,[1],75.5 µM
NS(=O)(=O)c1ccc(CCNC(=O)Cc2ccc(Br)cc2)cc1,IC50,[13],7.36 µM
same,IC50,[14],3.51 µM
same,selectivity ratio,[15],0.44
same,selectivity ratio,[16],0.44
Fc1cccc(F)c1CSc1nc2ccccc2s1,selectivity ratio,[17],4.48
same,selectivity ratio,[18],1.91
same,LC50,[19],260 µM
same,LC50,[20],110 µM
O=C(Nc1ccc([Se][Se]c2ccc(NC(=O)c3ccc(C(F)(F)F)cc3)cc2)cc1)c1ccc(C(F)(F)F)cc1,IC50,[9],5.4 µM
same,IC50,[11],2400 nM
CC1(C)OC2=C(CC1[Se]c1cccs1)C(=O)C(=O)c1ccccc12 (stereo not drawn),IC50,[1],63.3 µM
O=C(Nc1ccc([Se][Se]c2ccc(NC(=O)c3cccs3)cc2)cc1)c1cccs1,IC50,[9],15.4 µM
same,IC50,[11],12700 nM
Fc1ccc(CSc2nc3ccccc3s2)cc1,LC50,[19],> 350 µM
same,LC50,[20],> 350 µM
NC(=S)N/C=N/c1c(C(F)(F)F)nn(-c2ccccc2)c1-c1ccc(Br)cc1,IC50,[21],30.3 µM
COc1ccc(CC(=O)Nc2nnc(S(N)(=O)=O)s2)cc1,IC50,[13],6.69 µM
same,IC50,[14],3.27 µM
same,selectivity ratio,[15],1
same,selectivity ratio,[16],1
NC(=S)N/C=N/c1c(C(F)(F)F)nn(-c2ccccc2)c1-c1ccccc1,IC50,[21],83.1 µM
COc1ccc(-c2c(/N=C/NC(N)=S)c(C(F)(F)F)nn2-c2ccccc2)cc1,IC50,[21],29.7 µM
O=C1c2cccc3cccc(c23)C(=O)C1CCCCCCN=C=[Se],IC50,[8],200 nM
same,IC50,[22],30 nM
NS(=O)(=O)c1ccc(-c2cnc(C[Se]c3ccccc3)[se]2)cc1,IC50,[2],4.11 µM
Fc1cccc(CSc2nc3ccccc3s2)c1,LC50,[19],> 350 µM
same,LC50,[20],> 350 µM
Clc1ccc(CSc2nc3ccccc3s2)cc1,selectivity ratio,[18],> 3.42
same,LC50,[19],263 µM
same,LC50,[20],> 350 µM
COc1ccc(CSc2nc3ccccc3s2)cc1,selectivity ratio,[17],> 2.92
same,selectivity ratio,[18],> 3.26
same,LC50,[19],276 µM
same,LC50,[20],308 µM
NC(=S)N/C=N/c1c(C(F)(F)F)nn(-c2ccccc2)c1-c1ccc(Cl)cc1,IC50,[21],49.2 µM
NS(=O)(=O)c1ccc(NC(=O)Cc2ccc(Cl)cc2)c(F)c1,IC50,[13],3.54 µM
same,IC50,[14],2.83 µM
same,selectivity ratio,[15],3
same,selectivity ratio,[16],2
NS(=O)(=O)c1nnc(NC(=O)Cc2ccc(Cl)cc2)s1,IC50,[13],6.24 µM
same,IC50,[14],3.47 µM
same,selectivity ratio,[15],1
same,selectivity ratio,[16],1
N#C[Se]Cc1cccc(C#N)c1,IC50,[9],0.8 µM
same,IC50,[10],1000 nM
same,IC50,[11],900 nM
NS(=O)(=O)c1ccc(C[Te]c2ccc3ccccc3c2)cc1,IC50,[2],5.83 µM
Fc1c(F)c(F)c(CSc2nc3ccccc3s2)c(F)c1F,selectivity ratio,[17],1.69
same,selectivity ratio,[18],1.34
same,LC50,[19],185 µM
same,LC50,[20],147 µM
NS(=O)(=O)c1ccc(NC(=[Se])NC(=O)c2ccc3c(c2)OCO3)cc1,IC50,[2],5.28 µM
